Counter-ions that a name gives are not always drawn.
Tests used:
Type in all cases: cell-based
[1] = tested on: Staphylococcus aureus; test: Extended time kill study, Example 34 (0 to 24 h)
In short: (§1)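 Strain suspensions prepared as for MIC testing were mixed 1:1 with compound solution at higher multiples of MIC. Samples taken over 0 to 24 h were diluted in test medium and plated on agar, and colonies were counted after 24–48 h incubation.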

[2] = tested on: Pseudomonas aeruginosa; test: Extended time kill study, Example 34 (0 to 24 h)
In short: as §1

[3] = tested on: Candida albicans; test: Extended time kill study, Example 34 (0 to 24 h)
In short: as §1

[4] = tested on: Aspergillus niger; test: Extended time kill study, Example 34 (0 to 24 h)
In short: as §1

[5] = tested on: Escherichia coli; test: Extended time kill study, Example 34 (0 to 24 h)
In short: as §1

[6] = tested on: Acinetobacter iwoffi (ATCC 15309); test: MIC assay with different strains, Example 35
Procedure: (§2) The minimum inhibitory concentration (MIC) is used to determine the lowest concentration of a test product claiming antimicrobial effects that will inhibit growth of a microorganism. Each microbial suspension was adjusted approximately 10^7 to 10^8 colony forming units (CFU) per mL and labeled as the stock suspension. The stock suspension was further diluted to 1:200 in Mueller Hinton broth to obtain a test sample having a concentration of […]. The test sample was then tested for MIC as described in M202.R02. After incubation, each tube was examined for turbidity, which indicated growth or no growth. For the tubes where the product rendered the media turbid, an aliquot of the media was streaked onto agar plates to confirm growth or lack of growth.

[7] = tested on: Haemophilus influenza (ATCC 19418); test: MIC assay with different strains, Example 35
Procedure: as §2

[8] = tested on: Enterococcus faecalis (ATCC 19433); test: MIC assay with different strains, Example 35
Procedure: as §2

[9] = tested on: Serratia marcescens (ATCC 14756); test: MIC assay with different strains, Example 35
Procedure: as §2

CCCCCCCCCCCCOC(=O)C(C)N(C)C (stereo not drawn) [Nex-05, Dodecyl 2-(dimethylamino)propanoate hydrochloride]
Viable counts, Staphylococcus aureus time kill study ([1]; 1 × MIC, 1 h): <3 Log10 CFU/mL | Viable counts, Staphylococcus aureus time kill study ([1]; 1 × MIC, 2 h): <3 Log10 CFU/mL | Viable counts, Staphylococcus aureus time kill study ([1]; 1 × MIC, 4 h): <3 Log10 CFU/mL | Viable counts, Staphylococcus aureus time kill study ([1]; 1 × MIC, 6 h): <3 Log10 CFU/mL | Viable counts, Staphylococcus aureus time kill study ([1]; 1 × MIC, 24 h): <1 Log10 CFU/mL | Viable counts, Staphylococcus aureus time kill study ([1]; 1×MIC, time 0): 6.24 Log10 CFU/mL | Viable counts, Staphylococcus aureus time kill study ([1]; 2 × MIC, 1 h): <3 Log10 CFU/mL | Viable counts, Staphylococcus aureus time kill study ([1]; 2 × MIC, 2 h): <3 Log10 CFU/mL | Viable counts, Staphylococcus aureus time kill study ([1]; 2 × MIC, 4 h): <3 Log10 CFU/mL | Viable counts, Staphylococcus aureus time kill study ([1]; 2 × MIC, 6 h): <3 Log10 CFU/mL | Viable counts, Staphylococcus aureus time kill study ([1]; 2 × MIC, 24 h): <1 Log10 CFU/mL | Viable counts, Staphylococcus aureus time kill study ([1]; 2 × MIC, time 0): 6.25 Log10 CFU/mL | Viable counts, Staphylococcus aureus time kill study ([1]; 4 × MIC, 1 h): <3 Log10 CFU/mL | Viable counts, Staphylococcus aureus time kill study ([1]; 4 × MIC, 2 h): <3 Log10 CFU/mL | Viable counts, Staphylococcus aureus time kill study ([1]; 4 × MIC, 4 h): <3 Log10 CFU/mL | Viable counts, Staphylococcus aureus time kill study ([1]; 4 × MIC, 6 h): <3 Log10 CFU/mL | Viable counts, Staphylococcus aureus time kill study ([1]; 4 × MIC, 24 h): <1 Log10 CFU/mL | Viable counts, Staphylococcus aureus time kill study ([1]; 4 × MIC, time 0): 6.23 Log10 CFU/mL | Viable counts, Pseudomonas aeruginosa time kill study ([2]; 1 × MIC, 1 h): <1 Log10 CFU/mL | Viable counts, Pseudomonas aeruginosa time kill study ([2]; 1 × MIC, 2 h): <1 Log10 CFU/mL | Viable counts, Pseudomonas aeruginosa time kill study ([2]; 1 × MIC, 4 h): <1 Log10 CFU/mL | Viable counts, Pseudomonas aeruginosa time kill study ([2]; 1 × MIC, 6 h): <1 Log10 CFU/mL | Viable counts, Pseudomonas aeruginosa time kill study ([2]; 1 × MIC, 24 h): <1 Log10 CFU/mL | Viable counts, Pseudomonas aeruginosa time kill study ([2]; 1×MIC, time 0): 5.30 Log10 CFU/mL | Viable counts, Pseudomonas aeruginosa time kill study ([2]; 2 × MIC, 1 h): <1 Log10 CFU/mL | Viable counts, Pseudomonas aeruginosa time kill study ([2]; 2 × MIC, 2 h): <1 Log10 CFU/mL | Viable counts, Pseudomonas aeruginosa time kill study ([2]; 2 × MIC, 4 h): <1 Log10 CFU/mL | Viable counts, Pseudomonas aeruginosa time kill study ([2]; 2 × MIC, 6 h): <1 Log10 CFU/mL | Viable counts, Pseudomonas aeruginosa time kill study ([2]; 2 × MIC, 24 h): <1 Log10 CFU/mL | Viable counts, Pseudomonas aeruginosa time kill study ([2]; 2 × MIC, time 0): 5.22 Log10 CFU/mL | Viable counts, Pseudomonas aeruginosa time kill study ([2]; 4 × MIC, 1 h): <1 Log10 CFU/mL | Viable counts, Pseudomonas aeruginosa time kill study ([2]; 4 × MIC, 2 h): <1 Log10 CFU/mL | Viable counts, Pseudomonas aeruginosa time kill study ([2]; 4 × MIC, 4 h): <1 Log10 CFU/mL | Viable counts, Pseudomonas aeruginosa time kill study ([2]; 4 × MIC, 6 h): <1 Log10 CFU/mL | Viable counts, Pseudomonas aeruginosa time kill study ([2]; 4 × MIC, 24 h): <1 Log10 CFU/mL | Viable counts, Pseudomonas aeruginosa time kill study ([2]; 4 × MIC, time 0): 5.26 Log10 CFU/mL | Viable counts in Log10 CFU/mL ([3]; 1 × MIC, 1 h): 5.62 Log10 CFU/mL | Viable counts in Log10 CFU/mL ([3]; 1 × MIC, 2 h): 5.60 Log10 CFU/mL | Viable counts in Log10 CFU/mL ([3]; 1 × MIC, 4 h): 5.60 Log10 CFU/mL | Viable counts in Log10 CFU/mL ([3]; 1 × MIC, 6 h): 6.02 Log10 CFU/mL | Viable counts in Log10 CFU/mL ([3]; 1 × MIC, 24 h): >6 Log10 CFU/mL | Viable counts in Log10 CFU/mL ([3]; 1 × MIC, 0 h): 5.82 Log10 CFU/mL | Viable counts in Log10 CFU/mL ([3]; 2 × MIC, 1 h): 4.99 Log10 CFU/mL | Viable counts in Log10 CFU/mL ([3]; 2 × MIC, 2 h): 4.88 Log10 CFU/mL | Viable counts in Log10 CFU/mL ([3]; 2 × MIC, 4 h): 4.62 Log10 CFU/mL | Viable counts in Log10 CFU/mL ([3]; 2 × MIC, 6 h): 4.58 Log10 CFU/mL | Viable counts in Log10 CFU/mL ([3]; 2 × MIC, 24 h): 2.57 Log10 CFU/mL | Viable counts in Log10 CFU/mL ([3]; 2 × MIC, 0 h): 5.81 Log10 CFU/mL | Viable counts in Log10 CFU/mL ([3]; 4 × MIC, 1 h): 3.95 Log10 CFU/mL | Viable counts in Log10 CFU/mL ([3]; 4 × MIC, 2 h): 3.90 Log10 CFU/mL | Viable counts in Log10 CFU/mL ([3]; 4 × MIC, 4 h): <2.70 Log10 CFU/mL | Viable counts in Log10 CFU/mL ([3]; 4 × MIC, 6 h): <2.70 Log10 CFU/mL | Viable counts in Log10 CFU/mL ([3]; 4 × MIC, 24 h): <1 Log10 CFU/mL | Viable counts in Log10 CFU/mL ([3]; 4 × MIC, 0 h): 5.79 Log10 CFU/mL | Viable counts in Log10 CFU/mL ([4]; 1 × MIC, 1 h): 5.28 Log10 CFU/mL | Viable counts in Log10 CFU/mL ([4]; 1 × MIC, 2 h): 4.78 Log10 CFU/mL | Viable counts in Log10 CFU/mL ([4]; 1 × MIC, 4 h): 4.60 Log10 CFU/mL | Viable counts in Log10 CFU/mL ([4]; 1 × MIC, 6 h): 4.30 Log10 CFU/mL | Viable counts in Log10 CFU/mL ([4]; 1 × MIC, 24 h): 3.30 Log10 CFU/mL | Viable counts in Log10 CFU/mL ([4]; 1 × MIC, 0 h): 5.41 Log10 CFU/mL | Viable counts in Log10 CFU/mL ([4]; 2 × MIC, 1 h): 4.30 Log10 CFU/mL | Viable counts in Log10 CFU/mL ([4]; 2 × MIC, 2 h): 4.70 Log10 CFU/mL | Viable counts in Log10 CFU/mL ([4]; 2 × MIC, 4 h): 3 Log10 CFU/mL | Viable counts in Log10 CFU/mL ([4]; 2 × MIC, 6 h): 4 Log10 CFU/mL | Viable counts in Log10 CFU/mL ([4]; 2 × MIC, 24 h): <2 Log10 CFU/mL | Viable counts in Log10 CFU/mL ([4]; 2 × MIC, 0 h): 5.38 Log10 CFU/mL | Viable counts in Log10 CFU/mL ([4]; 4 × MIC, 1 h): 4.48 Log10 CFU/mL | Viable counts in Log10 CFU/mL ([4]; 4 × MIC, 2 h): 4 Log10 CFU/mL | Viable counts in Log10 CFU/mL ([4]; 4 × MIC, 4 h): 3 Log10 CFU/mL | Viable counts in Log10 CFU/mL ([4]; 4 × MIC, 6 h): 4 Log10 CFU/mL | Viable counts in Log10 CFU/mL ([4]; 4 × MIC, 24 h): <2 Log10 CFU/mL | Viable counts in Log10 CFU/mL ([4]; 4 × MIC, 0 h): 5.50 Log10 CFU/mL | Viable counts, Escherichia coli time kill study ([5]; 1 × MIC, 1 h): <1 Log10 CFU/mL | Viable counts, Escherichia coli time kill study ([5]; 1 × MIC, 2 h): <1 Log10 CFU/mL | Viable counts, Escherichia coli time kill study ([5]; 1 × MIC, 4 h): <1 Log10 CFU/mL | Viable counts, Escherichia coli time kill study ([5]; 1 × MIC, 6 h): <1 Log10 CFU/mL | Viable counts, Escherichia coli time kill study ([5]; 1 × MIC, 24 h): <1 Log10 CFU/mL | Viable counts, Escherichia coli time kill study ([5]; 1×MIC, time 0): 5.10 Log10 CFU/mL | Viable counts, Escherichia coli time kill study ([5]; 2 × MIC, 1 h): <1 Log10 CFU/mL | Viable counts, Escherichia coli time kill study ([5]; 2 × MIC, 2 h): <1 Log10 CFU/mL | Viable counts, Escherichia coli time kill study ([5]; 2 × MIC, 4 h): <1 Log10 CFU/mL | Viable counts, Escherichia coli time kill study ([5]; 2 × MIC, 6 h): <1 Log10 CFU/mL | Viable counts, Escherichia coli time kill study ([5]; 2 × MIC, 24 h): <1 Log10 CFU/mL | Viable counts, Escherichia coli time kill study ([5]; 2 × MIC, time 0): 5.16 Log10 CFU/mL | Viable counts, Escherichia coli time kill study ([5]; 4 × MIC, 1 h): <1 Log10 CFU/mL | Viable counts, Escherichia coli time kill study ([5]; 4 × MIC, 2 h): <1 Log10 CFU/mL | Viable counts, Escherichia coli time kill study ([5]; 4 × MIC, 4 h): <1 Log10 CFU/mL | Viable counts, Escherichia coli time kill study ([5]; 4 × MIC, 6 h): <1 Log10 CFU/mL | Viable counts, Escherichia coli time kill study ([5]; 4 × MIC, 24 h): <1 Log10 CFU/mL | Viable counts, Escherichia coli time kill study ([5]; 4 × MIC, time 0): 5.21 Log10 CFU/mL | MIC ([6]; Example 35): 0.156% | Growth/no growth ([6]; Sample Concentration 0.039%): Growth | Growth/no growth ([6]; Sample Concentration 0.078%): Growth | MIC ([7]; Example 35): 5% | Growth/no growth ([7]; Sample Concentration 0.039%): Growth | Growth/no growth ([7]; Sample Concentration 0.078%): Growth | Growth/no growth ([7]; Sample Concentration 0.156%): Growth | Growth/no growth ([7]; Sample Concentration 0.313%): Growth | Growth/no growth ([7]; Sample Concentration 0.625%): Growth | Growth/no growth ([7]; Sample Concentration 1.25%): Growth | Growth/no growth ([7]; Sample Concentration 2.5%): Growth | MIC ([8]; Example 35): 1.25% | Growth/no growth ([8]; Sample Concentration 0.039%): Growth | Growth/no growth ([8]; Sample Concentration 0.078%): Growth | Growth/no growth ([8]; Sample Concentration 0.156%): Growth | Growth/no growth ([8]; Sample Concentration 0.313%): Growth | Growth/no growth ([8]; Sample Concentration 0.625%): Growth | MIC ([9]; Example 35): 2.5% | Growth/no growth ([9]; Sample Concentration 0.039%): Growth | Growth/no growth ([9]; Sample Concentration 0.078%): Growth | Growth/no growth ([9]; Sample Concentration 0.156%): Growth | Growth/no growth ([9]; Sample Concentration 0.313%): Growth | Growth/no growth ([9]; Sample Concentration 0.625%): Growth | Growth/no growth ([9]; Sample Concentration 1.25%): Growth

— patent US20140357713A1, “ANTIMICROBIAL COMPOUNDS AND METHODS OF USE” (NexMed Holdings, Inc., priority 2012, published 2014)
